“And” between values parts separate entries of the source, which are not always exact repeats. Equal entries are not always repeated. Toxic doses and inconclusive results are not listed.
Tested on: P388 leukemia ip, CD2F1 mice, survival T/C
Experiment: NCI In Vivo Anticancer Drug Screen. Data for tumor model P388 Leukemia (intraperitoneal) in CD2F1 (CDF1) mice
Conditions: endpoint: median survival time, higher = longer survival
In short: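 Mice carrying the transplanted tumor received test compound or vehicle. Survival was recorded in each group, and the value is the treated-group measurement divided by that of the vehicle-treated control group.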

[1] = dose: 25.0 mg/kg/injection, schedule: Q04DX003 (ip), vehicle: saline with Tween-80
[2] = dose: 50.0 mg/kg/injection, schedule: Q04DX003 (ip), vehicle: saline with Tween-80
[3] = dose: 100.0 mg/kg/injection, schedule: Q04DX003 (ip), vehicle: saline with Tween-80
[4] = dose: 25.0 mg/kg/injection, schedule: Q01DX009 (ip), vehicle: saline
[5] = dose: 50.0 mg/kg/injection, schedule: Q01DX009 (ip), vehicle: saline

C=CCCCCCCCCC(=O)N(CCOC)CCOC
T/C [1]: 100 % of control | T/C [2]: 100 % of control | T/C [3]: 100 % of control

NC(=NCc1ccncc1)N/N=C\c1ccnc2ccccc12
T/C (dose: 60.0 mg/kg/injection, schedule: Q01DX005 (ip), vehicle: saline): 107 % of control | T/C (dose: 120.0 mg/kg/injection, schedule: Q01DX005 (ip), vehicle: saline): 106 % of control

CCCCCCC(O)CCCCCCCCCCC(=O)O (centres undefined)
T/C [3]: 109 % of control | T/C (dose: 200.0 mg/kg/injection, schedule: Q04DX003 (ip), vehicle: saline with Tween-80): 100 % of control | T/C (dose: 400.0 mg/kg/injection, schedule: Q04DX003 (ip), vehicle: saline with Tween-80): 104 % of control

S=c1n(-c2ccc(Cl)cc2)c2/c(=N\Nc3cc(Cl)ccc3Cl)c(n1-c1ccccn1)=NCCN=2
T/C (dose: 15.0 mg/kg/injection, schedule: Q01DX005 (ip), vehicle: saline with Tween-80): 98 % of control | T/C (dose: 30.0 mg/kg/injection, schedule: Q01DX005 (ip), vehicle: saline with Tween-80): 112 % of control | T/C (dose: 60.0 mg/kg/injection, schedule: Q01DX005 (ip), vehicle: saline with Tween-80): 99 % of control and 112 % of control

CNC(=O)c1ccccc1CC1(O)c2ccccc2Oc2ccccc21
T/C (dose: 50.0 mg/kg/injection, schedule: Q01DX005 (ip), vehicle: Klucel (hydroxypropylcellulose) (HPC)): 100 % of control | T/C (dose: 100.0 mg/kg/injection, schedule: Q01DX005 (ip), vehicle: Klucel (hydroxypropylcellulose) (HPC)): 99 % of control | T/C (dose: 200.0 mg/kg/injection, schedule: Q01DX005 (ip), vehicle: Klucel (hydroxypropylcellulose) (HPC)): 96 % of control

CCOP(=O)(N=Nc1ccc(OC)nc1)OCC
T/C (dose: 12.5 mg/kg/injection, schedule: Q01DX005 (ip), vehicle: saline): 102 % of control | T/C (dose: 25.0 mg/kg/injection, schedule: Q01DX005 (ip), vehicle: saline): 109 % of control | T/C (dose: 50.0 mg/kg/injection, schedule: Q01DX005 (ip), vehicle: saline): 100 % of control | T/C (dose: 100.0 mg/kg/injection, schedule: Q01DX005 (ip), vehicle: saline): 108 % of control | T/C (dose: 1560.0 micrograms/kg/injection, schedule: Q01DX009 (ip), vehicle: saline): 104 % of control | T/C (dose: 3125.0 micrograms/kg/injection, schedule: Q01DX009 (ip), vehicle: saline): 102 % of control | T/C (dose: 6250.0 micrograms/kg/injection, schedule: Q01DX009 (ip), vehicle: saline): 108 % of control | T/C (dose: 12500.0 micrograms/kg/injection, schedule: Q01DX009 (ip), vehicle: saline): 106 % of control | T/C (dose: 25000.0 micrograms/kg/injection, schedule: Q01DX009 (ip), vehicle: saline): 112 % of control

COc1cc(C)nc2ccc(Cc3ccc4nc(C)cc(OC)c4c3)cc12
T/C [1]: 94 % of control | T/C [2]: 91 % of control

Fc1ccc(-c2nc3ccccn3c2N=Nc2ccccc2)cc1
T/C (dose: 50.0 mg/kg/injection, schedule: Q01DX005 (ip), vehicle: saline with Tween-80): 88 % of control | T/C (dose: 100.0 mg/kg/injection, schedule: Q01DX005 (ip), vehicle: saline with Tween-80): 97 % of control | T/C (dose: 200.0 mg/kg/injection, schedule: Q01DX005 (ip), vehicle: saline with Tween-80): 94 % of control

CC(/C=N/N=C(N)N)=N/N=C(N)N
T/C [4]: 120 % of control | T/C (dose: 25.0 mg/kg/injection, schedule: Q04DX003 (ip), vehicle: saline): 100 % of control | T/C [5]: 150 % of control | T/C (dose: 50.0 mg/kg/injection, schedule: Q04DX003 (ip), vehicle: saline): 100 % of control | T/C (dose: 75.0 mg/kg/injection, schedule: Q01DX009 (ip), vehicle: saline): 170 % of control | T/C (dose: 100.0 mg/kg/injection, schedule: Q01DX009 (ip), vehicle: saline with Tween-80): 86 % of control

N#CC1C(=O)NC(=S)NC1c1ccc2c(c1)CCC2 (centres undefined)
T/C [5]: 100 % of control | T/C (dose: 100.0 mg/kg/injection, schedule: Q01DX009 (ip), vehicle: saline): 95 % of control | T/C (dose: 200.0 mg/kg/injection, schedule: Q01DX009 (ip), vehicle: saline): 94 % of control

Cc1ccc(S(=O)(=O)/C(=C/c2c(-c3ccccc3)c(-c3ccccc3)c3n2CCC3)NC=O)cc1
T/C (dose: 100.0 mg/kg/injection, schedule: Q01DX001 (ip), vehicle: saline with Tween-80): 96 % of control | T/C (dose: 200.0 mg/kg/injection, schedule: Q01DX001 (ip), vehicle: saline with Tween-80): 88 % of control | T/C (dose: 400.0 mg/kg/injection, schedule: Q01DX001 (ip), vehicle: saline with Tween-80): 86 % of control

O=C(c1ccccc1)c1ccc[n+](Cc2c(Cl)cccc2Cl)c1
T/C (dose: 6.25 mg/kg/injection, schedule: Q01DX009 (ip), vehicle: saline): 101 % of control and 98 % of control | T/C (dose: 12.5 mg/kg/injection, schedule: Q01DX009 (ip), vehicle: saline): 102 % of control and 105 % of control | T/C [4]: 105 % of control and 111 % of control and 123 % of control | T/C [5]: 108 % of control and 114 % of control and 117 % of control

From PubChem BioAssay AID330 (DTP/NCI, 2004)
